We go through 19 compounds from US5340833A, “Urokinase inhibitors” (Eisai Co., Ltd., priority 1992, dated 1994).

Where “and” joins values, the source holds several entries; their conditions need not be identical. Equal values may be shown once. Where a name gives a salt, the structure may show the parent alone. Where only a bound is given, the exact number is not on record here.

A word on the IC50: it is the concentration needed to halve the response being measured.

What all share (type): biochemical
In assay [1] the target is T1, urokinase (Homo sapiens, UniProt P00749).
T1 construct: human high molecular weight urokinase; purchased American Diagnostica, Greenwich, Conn
Briefly: Urokinase Indirect (Plasminogen-Linked) Assay. The settings on record: Table 3 column 4, simple number, unit inferred; read-out: uPA Indirect (plasminogen-linked) IC50.
Protocol: (ii) An indirect plasminogen-linked assay in which urokinase proteolytically activates plasminogen, forming plasmin which then cleaves a synthetic tripeptide pNA plasmin substrate.
Incubations were carried out at 22° C. for 45-60 minutes or until adequate color developed. Color qas quantitated as in the urokinase direct assay above. Parallel incubations were performed with and without plasminogen, and corrected absorbance values were obtained by subtracting values obtained without plasminogen from those obtained with plasminogen, eliminating any contribution of direct cleavage, if any, of plasmin substrate by urokinase.

Assay [2] addresses T2, human plasmin (Homo sapiens, UniProt P00747).
T2 construct: plasmin, the potent general protease produced by cleavage of plasminogen by either urokinase or tPA; purchased American Diagnostica
Briefly: Plasmin Assay. The following applies: for PLM/uPA ratio: ratio with respect to urokinase indirect plasminogen-linked IC50, larger = greater specificity for urokinase; for IC50: read-out: PLASMIN IC50. On the procedure: (v) A chromogenic pNA assay for plasmin, the potent general protease produced by cleavage of plasminogen by either urokinase or tPA. Although urokinase initiates cellular invasiveness by generating plasmin, the additional importance of plasmin in tPA-mediated fibrinolysis dictates that plasmin itself should be free from inhibition by urokinase inhibitors designed as anti-invasiveness agents. […] All other assay conditions, as well as methods of color quantitation, were carried out as described above for the urokinase direct assay.

Assay [3] addresses T3, human two-chain tPA (Homo sapiens, UniProt P00750).
T3 construct: human two-chain tPA was substituted for urokinase; purchased American Diagnostica
In words: tPA Indirect (Plasminogen-Linked) Assay (tPA Direct Assay result where lower). The following applies: for tPA/UPA ratio: ratio with respect to urokinase indirect plasminogen-linked IC50, larger = greater specificity for urokinase; for IC50: tPA Indirect Plasminogen-Linked Assay, in rare cases direct assay result if lower, read-out: tPA IC50. The text has this: (iv) Both direct and plasminogen-linked pNA assays for tPA, the other mammalian plasminogen activator and the key initiator of blood clot dissolution or fibrinolysis. Since urokinase and tPA share an absolute specificity for the same peptide bond in plasminogen, urokinase inhibitors designed to block cellular invasiveness must be highly specific for urokinase over tPA in order to avoid serious thrombotic side effects secondary to undesired blockage of normal fibrinolysis. […] Spectrozyme tPA®, American Diagnostica) was substituted for urokinase substrate.

T2 sequence (P00747 581-810 limits assumed): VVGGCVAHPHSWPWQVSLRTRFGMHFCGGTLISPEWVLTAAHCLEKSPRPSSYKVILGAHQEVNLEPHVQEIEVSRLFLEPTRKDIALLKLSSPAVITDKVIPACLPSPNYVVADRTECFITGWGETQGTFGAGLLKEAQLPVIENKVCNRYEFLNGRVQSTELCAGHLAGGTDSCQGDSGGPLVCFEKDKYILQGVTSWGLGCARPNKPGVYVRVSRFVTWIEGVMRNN
T2 sequence (P00747 97-580 limits assumed): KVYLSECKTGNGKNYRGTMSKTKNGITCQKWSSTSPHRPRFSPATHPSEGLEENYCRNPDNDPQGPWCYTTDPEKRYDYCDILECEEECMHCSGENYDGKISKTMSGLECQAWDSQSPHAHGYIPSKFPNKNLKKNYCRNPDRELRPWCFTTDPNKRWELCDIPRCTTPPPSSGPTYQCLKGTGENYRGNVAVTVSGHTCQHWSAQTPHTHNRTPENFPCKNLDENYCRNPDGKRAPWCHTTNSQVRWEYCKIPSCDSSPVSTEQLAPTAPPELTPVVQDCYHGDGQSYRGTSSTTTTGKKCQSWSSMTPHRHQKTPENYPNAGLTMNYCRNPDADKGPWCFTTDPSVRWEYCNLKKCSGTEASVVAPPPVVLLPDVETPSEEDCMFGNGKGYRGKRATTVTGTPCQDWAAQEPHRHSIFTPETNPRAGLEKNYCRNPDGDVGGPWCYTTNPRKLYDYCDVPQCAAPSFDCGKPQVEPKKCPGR
T3 sequence (P00750 311-562 limits assumed): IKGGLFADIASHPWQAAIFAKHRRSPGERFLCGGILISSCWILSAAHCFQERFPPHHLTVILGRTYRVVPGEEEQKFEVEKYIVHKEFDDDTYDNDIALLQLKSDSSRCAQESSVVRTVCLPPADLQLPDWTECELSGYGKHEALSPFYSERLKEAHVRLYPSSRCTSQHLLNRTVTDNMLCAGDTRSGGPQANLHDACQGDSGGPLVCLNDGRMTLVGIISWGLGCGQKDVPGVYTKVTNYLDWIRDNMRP
T3 sequence (P00750 36-310 limits assumed): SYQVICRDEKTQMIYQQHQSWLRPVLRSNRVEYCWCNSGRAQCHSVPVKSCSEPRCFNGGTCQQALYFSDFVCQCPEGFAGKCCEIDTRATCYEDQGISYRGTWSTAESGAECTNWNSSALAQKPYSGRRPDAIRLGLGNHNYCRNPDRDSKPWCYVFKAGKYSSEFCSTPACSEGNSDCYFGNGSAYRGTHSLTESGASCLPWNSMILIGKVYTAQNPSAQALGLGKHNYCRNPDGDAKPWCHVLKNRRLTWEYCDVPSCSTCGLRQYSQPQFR

As for `C=Cc1cccc2sc(C(=N)N)cc12.Cl` [Compound 17, 4-Ethenylbenzo[b]thiophene-2-carboxamidine hydrochloride], the IC50 in assay [1] came out at 1.4 µM. Moreover, in assay [2], the PLM/uPA ratio was 42 and the IC50 is 57 µM. For the same compound, in assay [3], the tPA/UPA ratio stood at 6.3 and the IC50 is 8.6 µM.
The matching figures for `C=CCc1cccc2sc(C(=N)N)cc12.Cl` [Compound 19, 4-(Prop-2-enyl)benzo[b] thiophene-2-carboxamidine hydrochloride]: 0.45 µM, 1120, 505 µM, 127 and 57 µM.
The matching figures for `CC(C)/C=C/c1cccc2sc(C(=N)N)cc12.Cl` [Compound 23, 4-(E-3-Methylbut-1-enyl)benzo[b]thiophene-2-carboxamidine hydrochloride]: 0.13 µM, 4838, 629 µM, 315 and 41 µM.
The matching figures for `CCC/C=C/c1cccc2sc(C(=N)N)cc12.Cl` [Compound 25, 4-(E-Pent-1-enyl)benzo[b]thiophene-2-carboxamidine hydrochloride]: 0.14 µM, 1471, 206 µM, 343 and 48 µM.
Turning to `CCCCC=Cc1cccc2sc(C(=N)N)cc12` [Compound 29, 4-(E/Z-Hex-1-enyl)benzo[b]thiophene-2-carboxamidine hydrochloride], the IC50 in assay [1] was determined as 0.34 µM. In assay [2], the PLM/uPA ratio is 718 and the IC50 was 244 µM. Besides, in assay [3], the tPA/UPA ratio was 250 and the IC50 is 85 µM.
The matching figures for `C#Cc1cccc2sc(C(=N)N)cc12.Cl` [Compound 39, 4-Ethynylbenzo[b]thiophene-2-carboxamidine hydrochloride]: 0.66 µM, 661, 704 µM, 436 and 288 µM.
The matching figures for `Cl.N=C(N)c1cc2c(-c3ccccc3)cccc2s1` [Compound 44, 4-Phenylbenzo[b]thiophene-2-carboxamidine hydrochloride]: 1.1 µM, 800, 881 µM, 58 and 64 µM.
The matching figures for `Cl.Cl.N=C(N)c1cc2c(-c3cccnc3)cccc2s1` [Compound 48, 4-(Pyrid-3-yl)benzo[b]thiophene-2-carboxamidine bis-hydrochloride]: 0.56 µM, 609, 341 µM, 152 and 85 µM.
With `Cl.N=C(N)c1cc2c(-c3ccco3)cccc2s1` [Compound 49, 4-(Furan-2-yl)benzo[b]thiophene-2-carboxamidine hydrochloride], in assay [1], the IC50 is 0.36 µM. Besides, in assay [2], the PLM/uPA ratio is 1000 and the IC50 turned out to be 360 µM. Further, in assay [3], the tPA/UPA ratio is recorded as 53 and the IC50 was 19 µM.
The matching figures for `Cl.N=C(N)c1cc2c(-c3cccs3)cccc2s1` [Compound 50, 4-(Thien-2-yl)benzo[b]thiophene-2-carboxamidine hydrochloride]: 0.5 µM, 762, 381 µM, 56 and 28 µM.
`Cl.N=C(N)c1cc2c(-c3cc4ccccc4o3)cccc2s1` [Compound 51, 4-(Benzo[b]furan-2-yl)benzo[b]thiophene-2-carboxamidine hydrochloride]: in assay [1], the IC50 turned out to be 0.56 µM. In assay [2], the PLM/uPA ratio was 1330 and the IC50 worked out at 745 µM. Also, in assay [3], the tPA/UPA ratio was 200 and the IC50 is 112 µM.
The matching figures for `N=C(N)c1ccc(-c2ccc(-c3cccc4sc(C(=N)N)cc34)o2)cc1` [Compound 53, 4-[5-(4-carboxamidinophenyl)fur-2-yl]benzo[b]thiophene-2-carboxamidine bis-hydrochloride]: 0.092 µM, 511, 47 µM, 45 and 4.1 µM.
In the case of `Cl.N=C(N)c1cc2c(CO)cccc2s1` [Compound 56, 4-(Hydroxymethyl)benzo[b]thiophene-2-carboxamidine hydrochloride], in assay [1], the IC50 was 0.88 µM. Besides, the PLM/uPA ratio in assay [2] is given as at least 1500. Besides, the inhibition at 1000 µM in assay [2] (read-out: PLASMIN activity observed relative to inhibitor-free controls) was 67%. In assay [3], the tPA/UPA ratio is given as 640 and the IC50 came out at 563 µM.
As for `CSc1cccc2sc(C(=N)N)cc12.Cl` [Compound 58, 4-(Methylthio)benzo[b]thiophene-2-carboxamidine hydrochloride], the IC50 in assay [1] came to 0.56 µM; in assay [2], 534 µM; in assay [3], 231 µM. In addition, the PLM/uPA ratio in assay [2] is given as 954. For the same compound, in assay [3], the tPA/UPA ratio worked out at 413.
In the case of `N=C(N)c1cc2c(C=Cc3ccccc3)cccc2s1` [Compound 63, 4-(E/Z-2-Phenylethenyl)benzo[b]thiophene-2-carboxamidine hydrochloride], the IC50 in assay [1] worked out at 0.14 µM. In assay [2], the PLM/uPA ratio is on record as 1250 and the IC50 was 175 µM. Also, in assay [3], the tPA/UPA ratio was determined as 86 and the IC50 amounted to 12 µM.
For `N=C(N)c1cc2c(C=Cc3ccc4c(c3)OCCO4)cccc2s1` [Compound 66, 4-[E/Z,2-(Benzo-1,4-dioxan-6-yl)ethenyl]benzo[b]thiophene-2-carboxamidine hydrochloride], the IC50 in assay [1] is 0.12 µM and 0.038 µM; in assay [2], 174 µM; in assay [3], 15 µM. In addition, the PLM/uPA ratio in assay [2] was determined as 4580. Moreover, in assay [3], the tPA/UPA ratio is given as 395.
Consider `Cl.N=C(N)c1cc2c(/C=C/c3ccco3)cccc2s1` [Compound 67, 4-[E-2-(Furan-2-yl)ethenyl]benzo[b]thiophene-2-carboxamidine hydrochloride], for which the IC50 came out at 0.195 µM in assay [1], 195 µM in assay [2] and 26 µM in assay [3]. The PLM/uPA ratio in assay [2] is 1000. Further, the tPA/UPA ratio in assay [3] was determined as 133.
The matching figures for `N=C(N)c1cc2c(/C=C/c3cccc4sc(C(=N)N)cc34)cccc2s1` [Compound 73, 4-[E-2-(2-Carboxamidinobenzothien-4-yl)ethenyl]benzo[b]thiophene-2-carboxamidine bis-hydrochloride]: 0.17 µM, 25 µM, 2.7 µM, 147 and 15.9.
The matching figures for `Cl.N=C(N)c1cc2c(C#Cc3ccco3)cccc2s1` [Compound 75, 4-[(Furan-2-yl)ethynyl]benzo[b]thiophene-2-carboxamidine hydrochloride]: 0.17 µM, 288 µM, 33 µM, 1694 and 194.
